In patent US20190002492A1, “DERIVATIVES OF ALLOPR[…] OF EPIALLOPR[…] USES THEREOF FOR TREATING A NEUROPATHOLOGICAL CONDITION” (UNIVERSITE DE STRASBOURG, priority 2011, published 2019):
Entries after “also recorded” stand apart in the source; their conditions may differ. Structures can show the parent of a compound that is named as a salt.

Key:
[1] = tested on: type A GABA channel receptors (GABAa-R); assay: Whole-cell patch-clamp, effect on GABA-induced ionic current; format: cell-based, human; conditions: 0.25 μM compound, GABA 10 μM in the recording pipette; for Effect on the type A GABA receptor channel or GABAa-R: whole cell patch-clamp
Procedure: The studies were conducted using an electrophysiological approach. The activity of the cells was recorded using the patch-clamp technique in its so-called whole cell configuration. The mediums used for the recordings have the following composition (in mM): NaCl ([…]), KCl (2), CaCl2 (1), MgCl2 (2), HEPES (10) for the medium bathing the cells and NaCl (132), KCl (2), CaCl2 (1), MgCl2 (2), TEA (15), HEPES (10) for the recording pipette, the pH was adjusted in both cases to 7.4 with NaOH. The GABA 10 μM was added into the recording pipette.
After producing a “gigaseal” (Planar patch clamp) between the cellular membrane and the tip of a pipette with an electrical resistance comprised between 4 and 7 MO, the ionic currents were measured using a patch-clamp amplifier (Axopatch B200, Axon Instruments, CA). The acquisition of the signal (acquisition frequency of 10 kHz) was done using an interface card (Digidata 1322A, Axon Instruments, CA) and the pClamp 8 software (Axons Instruments, CA).
The allopregnanolone and the BR053, BR338, BR297 and BR351 derivatives were solubilized in pure ethanol before being diluted in the medium to the desired concentration. The dilution factor was at least equal to 2×10^4, which makes the final concentration of ethanol in the recording solution remain below […] (a concentration not affecting the activity of the GABAa receptor).
Depending on the experiments, the allopregnanolone or the BR053, BR338, BR297 or BR351 derivatives, at the concentration of 0.25 μM, were either added in the recording pipette at the same time as the GABA, or applied to the cell by perfusion.
The application was done by gravity through a multi-path perfusion system made up of glass tubes each having an inner diameter of 1 mm. The selected path was placed across from the recorded cell at approximately 100 μm. The solution was changed by calibrated rotation of the tubes using a stepping motor thus placing the new selected path across from the cell. Synchronously with that rotation, the solenoid valve controlling the flow of the selected path was also opened and the preceding one closed.

Sprague-Dawley rats [2] = assay: Von Frey filament test, painful neuropathy caused by vincristine; format: in vivo, rat
From the text: (§1) Adult male Sprague-Dawley rats weighing between 250 and 300 g were used. They came from the company Janvier (le Genest St. Isle, France). The care and handling of the animals were done in accordance with the guidelines from the Council of the European Community (86/609/EC) and in accordance with the ethical rules of the International Association for the Study of Pain. The protocol used to carry out the in vivo studies was subject to examination and authorization granted to Prof. Mensah-Nyagan's team by the Alsatian Department of the Veterinary Public Health Guide for the Care and Use of Laboratory Animals (Approval number 67-186). The rats were housed under standard conditions with a photoperiod of 12 h day/12 h night, with unlimited food and water. The animals spent one acclimatization week before being integrated into the experimental protocols. Each animal was examined daily to detect any signs of deterioration of its health condition, such as dramatic weight loss, a decrease in appetite during chemotherapy and pharmacological treatment.
(§2) Vincristine sulfate (VINC), purchased from Sigma-Aldrich (St. Louis, Mo., USA), was dissolved in a physiological saline solution (NaCl 0.9%) at 0.1 mg/ml and stored at 4° C. The saline solution (NaCl 0.9%) is used as excipient. The VINC is injected daily by intraperitoneal injection (i.p.), in 2 cycles of 5 days separated by 2 days off, at a concentration of 0.1 mg/kg/day. The control animals were injected by i.p. (1 ml/kg) with the excipient using a similar protocol.
(§3) The allopregnanolone in the derivatives according to the invention (BR053 and BR297) were diluted in a hydroxypropylcellulose (HPC) solution (0.3%) used as excipient. The curative treatment with allopregnanolone, BR053 or BR297 began 3 days after the vincristine cycles. Each of these compounds (allopregnanolone, BR053 or BR297) was administered by the intraperitoneal route at a dose of 4 mg/kg at a rate of one injection every 2 days. Thus, over the total duration of the in vivo experiments (14 days), each animal received 7 injections of excipient, allopregnanolone, BR053 or BR297, based on its group, at a dose of 4 mg/kg. The animals were sacrificed 24 hours after the last behavioral test (28th day) to remove tissues that will be used for later histology and electrophysiology studies.
(§4) The mechanical nociceptive sensitivity threshold was evaluated in rats placed in individual Plexiglas boxes (30×30×25 cm) mounted on a raised mesh support thereby allowing access to the surface or arch of the back feet. The presence of allodynia (exaggerated response following a normally […] stimulation) was measured using a series of calibrated von Frey filaments (1, 2, 4, 6, 8, 10, 15, 26, 100, 180 and 300 g; Stoelting, Wood Dale, Ill., USA), which were applied on the sole of the back foot of the animal with increasing force until the filament twisted. The filament was applied for a period of 1 to 2 seconds and the procedure was repeated 5 times at 4-5 second intervals. The withdrawal threshold of the foot was calculated by taking the average of […] repeated stimuli (in grams) that caused a reflex to withdraw the foot. Only vigorous and fast withdrawals of the foot were considered positive. In the experiments, the naïve animals never responded to the 4 g filament and responded 25-30% of the time to the 15 g filament.

Sprague-Dawley rats [3] = assay: Acetone test of thermal allodynia to cold, painful neuropathy caused by vincristine; format: in vivo, rat
From the text: as §1, §2, §3
The thermal nociceptive sensitivity threshold to cold was measured in rats placed in individual Plexiglas boxes (30×30×25 cm) mounted on a raised mesh support so as to allow access to the sole of the animal's foot. […] Six measurements (3 per foot) were performed with a latency of 5 minutes between each stimulation. The average latency for withdrawal of the feet (in seconds) was calculated by averaging 6 measurements at each studied point in time. […]

Sprague-Dawley rats [4] = assay: Von Frey mechanical nociceptive sensitivity threshold in healthy animals not treated with vincristine; format: in vivo, rat; conditions: 4 mg/kg every 2 days for 2 weeks
From the text: as §1, §3
as §4, with “In the experiments, the naïve animals never responded to the 4 g filament and responded 25-30% of the time to the 15 g filament.” left out

[5] = tested on: SH-SY5Y human neuroblastomas; assay: MTT assay of cell viability and density: effect on cell proliferation; format: cell-based; set-up: key to Effect on cell proliferation (neural proliferative effect): −: no effect; +: low effect; ++: high effect; +++: very high effect; conditions: SH-SY5Y cultures
Procedure: (§5) The cellular model used to carry out the in vitro experiments is a line of human neuroblastomas called line SH-SY5Y.
(§6) The human neuroblastoma is a cultivated at 37° C. in a humidity saturated atmosphere, under 5% CO2 in a culture medium formed by DMEM with an added 10% (v/v) fetal calf serum, 5% (v/v) horse serum, 2 mM glutamax and 1% (v/v) of the penicillin/streptomycin mixture.
The cellular viability and the density (or number of SH-SY5Y cells/cm^2) were determined using the MTT reduction assay. The MTT technique is a colorimetric test that measures the reduction of the tetrazolium salt (3-[4,5-dimethylthiazol-2-yl]-2,5-diphenyl tetrazolium bromide) in formazan by the succinate dehydrogenase present in the mitochondria of the living cells. The formazan forms blue crystals. Thus, after solubilization of the crystals, the measurement of the absorbance at 595 nm makes it possible to obtain absorbency values directly proportional to the number of viable cells and the cell density in the culture boxes.
The effects of derivatives BR053, BR338, BR297 and BR351 on cell proliferation were evaluated by comparing the number of viable cells and the cell density in the control culture boxes, treated only with the culture medium described in paragraph A1 above, and the culture boxes exposed to the culture medium with the added BR053, BR338, BR297 or BR351 derivatives.

[6] = tested on: SH-SY5Y human neuroblastomas; assay: Neuroprotection against cell death caused by oxidizing stress (H2O2), MTT readout; format: cell-based; set-up: key to Neuroprotective effect against cell death caused by oxidizing stress: −: no effect; +: low effect; ++: high effect; +++: very high effect; conditions: H2O2 1 mM; for Neuroprotective effect against cell death caused by oxidizing stress: SH-SY5Y cultures, 24 or 48 hours, MTT; for Protection of human neuroblastomas from cell death caused by H2O2 (in words): SH-SY5Y
Procedure: as §5, §6
The human neuroblastomas were incubated with the culture medium alone or containing the chief inducing agent of oxidizing stress, hydrogen peroxide (H2O2), at various concentrations in order to determine the concentrations of H2O2 and the incubation times causing the death of a significant percentage of the cells. The neuroprotective properties of the BR053, BR338, BR297 and BR351 derivatives were determined by pretreating the SH-SY5Y cells with the culture medium alone or respectively containing the BR053, BR338, BR297 or BR351 derivative. After pretreatment, each of these categories of cells was integrated for 24 hours or 48 hours with the following solutions: (i) culture medium; (ii) culture medium containing only the BR053, BR338, BR297 or BR351 derivative; (iii) culture medium containing only H2O2 at a concentration of 1 mM, which causes a high percentage of cell death; (iv) culture medium containing both H2O2 (1 mM) and one of the BR053, BR338, BR297 or BR351 derivatives.
10 μl of a stock solution of tetrazolium, abbreviated MTT, at 3.6 mM was added in each well and the incubation continued in darkness for 5 h at 37° C. After cell lysis, spectrophotometer measurements at 595 nm were carried out to determine the survival and cell density under each of the conditions described above.

[7] = rats with vincristine neuropathy, 4 mg/kg i.p. every 2 days for 2 weeks

Compound	Effect on the type A GABA receptor channel or GABAa-R [1]	Effect on the type A GABA receptor channel or GABAa-R ([1]; listed as allopregnanolone)	Effect on mechanical allodynia and mechanical hyperalgesia (Sprague-Dawley rats [2]; [7])	Effect on thermal allodynia to cold (Sprague-Dawley rats [3]; [7])	Anti-nociceptive effect in healthy animals (Sprague-Dawley rats [4])	Mechanical nociceptive sensitivity threshold after treatment (Sprague-Dawley rats [4]; 80 g before) [g]	Effect on cell proliferation (neural proliferative effect) [5]	Effect on the proliferation of human neuroblastomas (in words) [5]	Neuroprotective effect against cell death caused by oxidizing stress [6]	Protection of human neuroblastomas from cell death caused by H2O2 (in words) [6]	Time until desensitization of the GABAa-R channel [1] [min]	Von Frey filament that causes more than 70% of responses (Sprague-Dawley rats [2]; rats after vincristine 0.1 mg/kg/day i.p., 2 cycles of 5 days, 80 g before treatment) [g]	Responses to the 15 g filament (mechanical hyperalgesia) (Sprague-Dawley rats [2]; rats after vincristine chemotherapy, 30% before) [%]	Responses to the 4 g filament (mechanical allodynia) (Sprague-Dawley rats [2]; rats after vincristine chemotherapy, no response before treatment)	Latency for withdrawal of the foot, acetone test (Sprague-Dawley rats [3]; rats after vincristine chemotherapy, 20 seconds before) [s]
CC(=O)[C@H]1CCC2C3CC[C@H]4C[C@H](O)CC[C@]4(C)C3CC[C@@]21C (stereo partly drawn) [Allopregnanolone, reference compound]	Positive allosteric effect	positive allosteric effect	eliminates the symptoms	eliminates the symptoms	significant anti-nociceptive effect	200									
CC(=O)[C@H]1CCC2C3CC[C@H]4C[C@H](O)CC[C@]4(C)C3CC(=O)[C@@]21C (stereo partly drawn) [BR338]	Positive allosteric effect						++	high effectiveness	+	capable of protecting human neuroblastomas from the cell death					
C=CCO[C@@H]1CC[C@]2(C)C3CC[C@@]4(C)C(CC[C@@H]4C(C)=O)C3CC[C@H]2C1 (stereo partly drawn) [BR351]	only temporarily reproduces the positive allosteric effect; also recorded: Temporary positive allosteric						+++	very high effectiveness	+++	capable of protecting human neuroblastomas from the cell death	1				
CC[C@]1(O)C[C@H]2CN(CCc3c([nH]c4ccccc34)[C@@](C(=O)OC)(c3cc4c(cc3OC)N(C=O)[C@H]3[C@@](O)(C(=O)OC)[C@H](OC(C)=O)[C@]5(CC)C=CCN6CC[C@]43[C@@H]65)C2)C1 [vincristine, Vincristine sulfate]												20	~70	more than 30%	11
